Measurements as given in paper PMC6010138, “Synthesis and carbonic anhydrase I, II, VII, and IX inhibition studies with a series of benzo[d]thiazole-5- and 6-sulfonamides” (Journal of Enzyme Inhibition and Medicinal Chemistry, 2017).

How the values were obtained:
Experiment in all cases: stopped-flow CO2 hydrase assay
Type in all cases: biochemical
hCA II = target: T1, hCA II (Homo sapiens, UniProt P00918)
T1 construct: gene CA2; recombinant, obtained in-house; cytosolic isoform
Excerpt: stopped-flow CO2 hydrase assay on hCA II

hCA VII = target: T2, hCA VII (Homo sapiens, UniProt P43166)
T2 construct: gene CA7; recombinant, obtained in-house; cytosolic isoform
Excerpt: stopped-flow CO2 hydrase assay on hCA VII

hCA IX = target: T3, hCA IX (Homo sapiens, UniProt Q16790)
T3 construct: gene CA9; recombinant, obtained in-house; transmembrane isoform

hCA I = target: T4, hCA I (Homo sapiens, UniProt P00915)
T4 construct: gene CA1; recombinant, obtained in-house; cytosolic isoform
T4 sequence (P00915 2-261): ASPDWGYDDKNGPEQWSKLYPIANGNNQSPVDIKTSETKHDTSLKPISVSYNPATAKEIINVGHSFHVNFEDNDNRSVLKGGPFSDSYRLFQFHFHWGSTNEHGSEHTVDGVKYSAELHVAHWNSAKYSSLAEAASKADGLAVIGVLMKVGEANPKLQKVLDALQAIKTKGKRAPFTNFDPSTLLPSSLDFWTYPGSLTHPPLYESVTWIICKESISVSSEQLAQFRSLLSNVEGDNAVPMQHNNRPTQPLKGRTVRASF

T2 sequence (P43166 whole entry, canonical isoform): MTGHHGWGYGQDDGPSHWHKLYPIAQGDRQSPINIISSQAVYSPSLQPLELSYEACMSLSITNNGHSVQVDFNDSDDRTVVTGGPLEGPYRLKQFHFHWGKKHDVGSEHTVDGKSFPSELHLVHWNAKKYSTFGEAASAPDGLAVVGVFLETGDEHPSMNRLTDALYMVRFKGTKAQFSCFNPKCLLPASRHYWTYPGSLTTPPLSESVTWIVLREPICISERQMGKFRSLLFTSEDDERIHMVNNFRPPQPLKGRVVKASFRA

| Ki (hCA II) [nM] | Ki (hCA VII) [nM] | Ki (hCA IX) [nM] | Ki (hCA I) [nM] | Structure (SMILES) |
| --- | --- | --- | --- | --- |
| 20.8 | 54.4 | 23.2 | 361 | CC(=O)Nc1nc2ccc(S(N)(=O)=O)cc2s1 [compound 9, N-(6-sulfamoylbenzo[d]thiazol-2-yl)acetamide] |
| 33.6 | 84.2 | 3.7 | 84.1 | Nc1nc2ccc(S(N)(=O)=O)cc2s1 [compound 2, 2-Aminobenzo[d]thiazole-6-sulfonamide] |
| 70 | 75.4 | 32.9 | 471 | NC(=S)Nc1ccc(S(N)(=O)=O)cc1 [compound 1, 4-Thioureido-benzenesulfonamide] |
| 369 | 56.5 | 38.2 | 795 | Nc1nc2cc(S(N)(=O)=O)ccc2s1 [compound 4, 2-Aminobenzo[d]thiazole-5-sulfonamide] |
| 15.1 | 92.3 | 212 | 606 | Nc1nc2c(I)cc(S(N)(=O)=O)cc2s1 [compound 7, 2-Amino-4-iodobenzo[d]thiazole-6-sulfonamide] |
| 211 | 80.6 | 34.4 | 2330 | CC(=O)Nc1nc2c(Br)cc(S(N)(=O)=O)cc2s1 [compound 10, N-(4-bromo-6-sulfamoylbenzo[d]thiazol-2-yl)acetamide] |
| 8.7 | 31.1 | 16.2 | 306 | Nc1nc2c(Br)cc(S(N)(=O)=O)cc2s1 [compound 5, 2-Amino-4-bromobenzo[d]thiazole-6-sulfonamide] |
| 149 | 75 | 296 | 917 | NC(=S)Nc1cccc(S(N)(=O)=O)c1 [compound 3, 3-Thioureidobenzenesulfonamide] |
| 51.5 | 42.2 | 100 | 482 | Nc1nc2c(I)c(S(N)(=O)=O)ccc2s1 [compound 8, 2-Amino-4-iodobenzo[d]thiazole-5-sulfonamide] |
| 42 | 81.5 | 32.6 | 341 | CC(=O)Nc1nc2cc(S(N)(=O)=O)ccc2s1 [compound 11, N-(5-sulfamoylbenzo[d]thiazol-2-yl)acetamide] |
| 13.5 | 46.5 | 10 | 97.1 | NS(=O)(=O)c1ccc2nc(NC(=O)c3ccccc3C(=O)O)sc2c1 [compound 12, 2-((6-Sulfamoylbenzo[d]thiazol-2-yl)carbamoyl)benzoic acid] |
| 7.8 | 0.8 | 29.6 | 705 | Nc1nc2c(Br)c(S(N)(=O)=O)ccc2s1 [compound 6, 2-Amino-4-bromobenzo[d]thiazole-5-sulfonamide] |
